Measured values as given in patent US10765114B2, “4-amino-6-(pyridyl and 2-substitutedphenyl)-picolinates and 6-amino-2-(pyridyl and 2-substitutedphenyl)-pyrimidine-4-carboxylates and their use as herbicides” (Dow AgroSciences LLC, priority 2013, dated 2020).

Each compound was assayed on ALOMY (blackgrass) (assay: Post-Emergent Test III (Wheat and Barley)). Conditions: Alopecurus myosuroides, post-emergence, 504 h; 35 g ai/ha, postemergence; read-out: Visual Growth Reduction (%) 21 Days After Application, ALOMY.
Format: in vivo, Alopecurus myosuroides
Experimental: (§1) Seeds of the desired test plant species were planted in Sun Gro MetroMix® 306 planting mixture, which typically has a pH of 6.0 to 6.8 and an organic matter content of about 30 percent, in plastic pots with a surface area of 103.2 square centimeters (cm^2). When required to ensure good germination and healthy plants, a fungicide treatment and/or other chemical or physical treatment was applied. The plants were grown for 7-36 days in a greenhouse with an approximate 14 h photoperiod which was maintained at about 18° C. during the day and 17° C. during the night. Nutrients and water were added on a regular basis and supplemental lighting was provided with overhead metal halide 1000-Watt lamps as necessary. The plants were employed for testing when they reached the second or third true leaf stage.
(§2) A weighed amount, determined by the highest rate to be tested, of each test compound was placed in a 25 mL glass vial and was dissolved in 4 mL of a 97:3 v/v mixture of acetone and DMSO to obtain concentrated stock solutions. […] The concentrated stock solutions obtained were diluted with 20 mL of an aqueous mixture containing acetone, water, isopropyl alcohol, DMSO, Agri-Dex crop oil concentrate, and X-77 surfactant in a 48:39:10:1.5:1.5:0.02 v/v ratio to obtain spray solutions containing the highest application rates. Additional application rates were obtained by serial dilution of 12 mL of the high rate solution into a solution containing 2 mL of 97:3 v/v mixture of acetone and DMSO and 10 mL of an aqueous mixture containing acetone, water, isopropyl alcohol, DMSO, Agri-Dex crop oil concentrate, and X-77 surfactant in a 48:39:10:1.5:1.5:0.02 v/v ratio to obtain ½×, ¼×, ⅛× and 1/16× rates of the high rate. Compound requirements are based upon a 12 mL application volume at a rate of 187 liters per hectare (L/ha). Formulated compounds were applied to the plant material with an overhead Mandel track sprayer equipped with 8002E nozzles calibrated to deliver 187 L/ha over an application area of 0.503 square meters at a spray height of 18 inches (43 cm) above the average plant canopy height. Control plants were sprayed in the same manner with the solvent blank.
(§3) The treated plants and control plants were placed in a greenhouse as described above and watered by subirrigation to prevent wash-off of the test compounds. After 21 dAYS, the condition of the test plants as compared with that of the untreated plants was determined visually and scored on a scale of 0 to 100 percent where 0 corresponds to no injury and 100 corresponds to complete kill and presented as indicated in Table A.
(§4) By applying the well-accepted probit analysis as described by J. Berkson in Journal of the American Statistical Society, 48, 565 (1953) and by D. Finney in “Probit Analysis” Cambridge University Press (1952), herbicidal injury of a specific compound at various rates can be used to calculate GR10, GR20, GR50, GR80 and GR90 values, which are defined as growth reduction factors that correspond to the effective dose of herbicide required to provide plant growth reduction (GR) of 10 percent, 20 percent, 50 percent, 80 percent and 90 percent, respectively. Probit analysis was applied to data collected from multiple dose rates of individual compounds utilizing the procedures explained in the following examples. The analysis of those dose rates is captured in the following tables.

| Structure (SMILES) | pest or weed control at 35 g/ha [%] |
| --- | --- |
| Nc1c(F)c(-c2ccc(C3CC3)nc2)nc(C(=O)O)c1Cl [Compound 36, 4-amino-5-chloro-6′-cyclopropyl-3-fluoro-[2,3′-bipyridine]-6-carboxylic acid] | 0 to 29 |

Same assay, conditions: Alopecurus myosuroides, post-emergence, 504 h; 70 g ai/ha, postemergence; read-out: Visual Growth Reduction (%) 21 Days After Application, ALOMY

| Structure (SMILES) | pest or weed control at 70 g/ha [%] |
| --- | --- |
| Nc1c(F)c(-c2ccc(C3CC3)nc2)nc(C(=O)O)c1Cl [Compound 36, 4-amino-5-chloro-6′-cyclopropyl-3-fluoro-[2,3′-bipyridine]-6-carboxylic acid] | 30 to 44 |

Same assay, conditions: effective dose for growth reduction of 50 percent, probit analysis

| Structure (SMILES) | GR50, ALOMY [g ai/ha] |
| --- | --- |
| Nc1c(F)c(-c2ccc(C3CC3)nc2)nc(C(=O)O)c1Cl [Compound 36, 4-amino-5-chloro-6′-cyclopropyl-3-fluoro-[2,3′-bipyridine]-6-carboxylic acid] | 126 |

Same assay, conditions: effective dose for growth reduction of 80 percent, probit analysis

| Structure (SMILES) | GR80, ALOMY [g ai/ha] |
| --- | --- |
| Nc1c(F)c(-c2ccc(C3CC3)nc2)nc(C(=O)O)c1Cl [Compound 36, 4-amino-5-chloro-6′-cyclopropyl-3-fluoro-[2,3′-bipyridine]-6-carboxylic acid] | >140 |

What follows are compounds tested on TRZSS (assay: Post-Emergent Test III (Wheat and Barley)). Conditions: Triticum aestivum, post-emergence, 504 h; 35 g ai/ha, postemergence; read-out: Visual Growth Reduction (%) 21 Days After Application, TRZSS.
Format: in vivo
Experimental: as §1, §2, §3, §4

| Structure (SMILES) | pest or weed control at 35 g/ha [%] |
| --- | --- |
| Nc1c(F)c(-c2ccc(C3CC3)nc2)nc(C(=O)O)c1Cl [Compound 36, 4-amino-5-chloro-6′-cyclopropyl-3-fluoro-[2,3′-bipyridine]-6-carboxylic acid] | 60 to 74 |

Same assay, conditions: Triticum aestivum, post-emergence, 504 h; 70 g ai/ha, postemergence; read-out: Visual Growth Reduction (%) 21 Days After Application, TRZSS

| Structure (SMILES) | pest or weed control at 70 g/ha [%] |
| --- | --- |
| Nc1c(F)c(-c2ccc(C3CC3)nc2)nc(C(=O)O)c1Cl [Compound 36, 4-amino-5-chloro-6′-cyclopropyl-3-fluoro-[2,3′-bipyridine]-6-carboxylic acid] | 75 to 84 |

Same assay, conditions: effective dose for growth reduction of 20 percent, probit analysis

| Structure (SMILES) | GR20, TRZSS [g ai/ha] |
| --- | --- |
| Nc1c(F)c(-c2ccc(C3CC3)nc2)nc(C(=O)O)c1Cl [Compound 36, 4-amino-5-chloro-6′-cyclopropyl-3-fluoro-[2,3′-bipyridine]-6-carboxylic acid] | 1 |

What follows are compounds tested on HORSS (assay: Post-Emergent Test III (Wheat and Barley)). Conditions: Hordeum vulgare, post-emergence, 504 h; 35 g ai/ha, postemergence; read-out: Visual Growth Reduction (%) 21 Days After Application, HORSS.
Format: in vivo
Experimental: as §1, §2, §3, §4

| Structure (SMILES) | pest or weed control at 35 g/ha [%] |
| --- | --- |
| Nc1c(F)c(-c2ccc(C3CC3)nc2)nc(C(=O)O)c1Cl [Compound 36, 4-amino-5-chloro-6′-cyclopropyl-3-fluoro-[2,3′-bipyridine]-6-carboxylic acid] | 60 to 74 |

Same assay, conditions: Hordeum vulgare, post-emergence, 504 h; 70 g ai/ha, postemergence; read-out: Visual Growth Reduction (%) 21 Days After Application, HORSS

| Structure (SMILES) | pest or weed control at 70 g/ha [%] |
| --- | --- |
| Nc1c(F)c(-c2ccc(C3CC3)nc2)nc(C(=O)O)c1Cl [Compound 36, 4-amino-5-chloro-6′-cyclopropyl-3-fluoro-[2,3′-bipyridine]-6-carboxylic acid] | 75 to 84 |

Same assay, conditions: effective dose for growth reduction of 20 percent, probit analysis

| Structure (SMILES) | GR20, HORSS [g ai/ha] |
| --- | --- |
| Nc1c(F)c(-c2ccc(C3CC3)nc2)nc(C(=O)O)c1Cl [Compound 36, 4-amino-5-chloro-6′-cyclopropyl-3-fluoro-[2,3′-bipyridine]-6-carboxylic acid] | 1 |

Each compound was assayed on SETVI (green foxtail) (assay: Post-Emergent Test III (Wheat and Barley)). Conditions: Setaria viridis, post-emergence, 504 h; 35 g ai/ha, postemergence; read-out: Visual Growth Reduction (%) 21 Days After Application, SETVI.
Format: in vivo, Setaria viridis
Experimental: as §1, §2, §3, §4

| Structure (SMILES) | pest or weed control at 35 g/ha [%] |
| --- | --- |
| Nc1c(F)c(-c2ccc(C3CC3)nc2)nc(C(=O)O)c1Cl [Compound 36, 4-amino-5-chloro-6′-cyclopropyl-3-fluoro-[2,3′-bipyridine]-6-carboxylic acid] | 30 to 44 |

Same assay, conditions: Setaria viridis, post-emergence, 504 h; 70 g ai/ha, postemergence; read-out: Visual Growth Reduction (%) 21 Days After Application, SETVI

| Structure (SMILES) | pest or weed control at 70 g/ha [%] |
| --- | --- |
| Nc1c(F)c(-c2ccc(C3CC3)nc2)nc(C(=O)O)c1Cl [Compound 36, 4-amino-5-chloro-6′-cyclopropyl-3-fluoro-[2,3′-bipyridine]-6-carboxylic acid] | 45 to 59 |

Same assay, conditions: effective dose for growth reduction of 50 percent, probit analysis

| Structure (SMILES) | GR50, SETVI [g ai/ha] |
| --- | --- |
| Nc1c(F)c(-c2ccc(C3CC3)nc2)nc(C(=O)O)c1Cl [Compound 36, 4-amino-5-chloro-6′-cyclopropyl-3-fluoro-[2,3′-bipyridine]-6-carboxylic acid] | 59 |

Same assay, conditions: effective dose for growth reduction of 80 percent, probit analysis

| Structure (SMILES) | GR80, SETVI [g ai/ha] |
| --- | --- |
| Nc1c(F)c(-c2ccc(C3CC3)nc2)nc(C(=O)O)c1Cl [Compound 36, 4-amino-5-chloro-6′-cyclopropyl-3-fluoro-[2,3′-bipyridine]-6-carboxylic acid] | >140 |

These compounds were tested on KCHSC (kochia) (assay: Post-Emergent Test III (Wheat and Barley)). Conditions: Bassia scoparia, post-emergence, 504 h; 35 g ai/ha, postemergence; read-out: Visual Growth Reduction (%) 21 Days After Application, KCHSC.
Format: in vivo, Kochia scoparia
Experimental: as §1, §2, §3, §4

| Structure (SMILES) | pest or weed control at 35 g/ha [%] |
| --- | --- |
| Nc1c(F)c(-c2ccc(C3CC3)nc2)nc(C(=O)O)c1Cl [Compound 36, 4-amino-5-chloro-6′-cyclopropyl-3-fluoro-[2,3′-bipyridine]-6-carboxylic acid] | 45 to 59 |

Same assay, conditions: Bassia scoparia, post-emergence, 504 h; 70 g ai/ha, postemergence; read-out: Visual Growth Reduction (%) 21 Days After Application, KCHSC

| Structure (SMILES) | pest or weed control at 70 g/ha [%] |
| --- | --- |
| Nc1c(F)c(-c2ccc(C3CC3)nc2)nc(C(=O)O)c1Cl [Compound 36, 4-amino-5-chloro-6′-cyclopropyl-3-fluoro-[2,3′-bipyridine]-6-carboxylic acid] | 60 to 74 |

Same assay, conditions: effective dose for growth reduction of 50 percent, probit analysis

| Structure (SMILES) | GR50, KCHSC [g ai/ha] |
| --- | --- |
| Nc1c(F)c(-c2ccc(C3CC3)nc2)nc(C(=O)O)c1Cl [Compound 36, 4-amino-5-chloro-6′-cyclopropyl-3-fluoro-[2,3′-bipyridine]-6-carboxylic acid] | 34 |

Same assay, conditions: effective dose for growth reduction of 80 percent, probit analysis

| Structure (SMILES) | GR80, KCHSC [g ai/ha] |
| --- | --- |
| Nc1c(F)c(-c2ccc(C3CC3)nc2)nc(C(=O)O)c1Cl [Compound 36, 4-amino-5-chloro-6′-cyclopropyl-3-fluoro-[2,3′-bipyridine]-6-carboxylic acid] | 108 |

What follows are compounds tested on APESV (windgrass) (assay: Post-Emergent Test III (Wheat and Barley)). Conditions: Apera spica-venti, post-emergence, 504 h; 35 g ai/ha, postemergence; read-out: Visual Growth Reduction (%) 21 Days After Application, APESV.
Format: in vivo, Apera spica-venti
Experimental: as §1, §2, §3, §4

| Structure (SMILES) | pest or weed control at 35 g/ha [%] |
| --- | --- |
| Nc1c(F)c(-c2ccc(C3CC3)nc2)nc(C(=O)O)c1Cl [Compound 36, 4-amino-5-chloro-6′-cyclopropyl-3-fluoro-[2,3′-bipyridine]-6-carboxylic acid] | 45 to 59 |

Same assay, conditions: Apera spica-venti, post-emergence, 504 h; 70 g ai/ha, postemergence; read-out: Visual Growth Reduction (%) 21 Days After Application, APESV

| Structure (SMILES) | pest or weed control at 70 g/ha [%] |
| --- | --- |
| Nc1c(F)c(-c2ccc(C3CC3)nc2)nc(C(=O)O)c1Cl [Compound 36, 4-amino-5-chloro-6′-cyclopropyl-3-fluoro-[2,3′-bipyridine]-6-carboxylic acid] | 85 to 94 |

Same assay, conditions: effective dose for growth reduction of 50 percent, probit analysis

| Structure (SMILES) | GR50, APESV [g ai/ha] |
| --- | --- |
| Nc1c(F)c(-c2ccc(C3CC3)nc2)nc(C(=O)O)c1Cl [Compound 36, 4-amino-5-chloro-6′-cyclopropyl-3-fluoro-[2,3′-bipyridine]-6-carboxylic acid] | 24 |

Same assay, conditions: effective dose for growth reduction of 80 percent, probit analysis

| Structure (SMILES) | GR80, APESV [g ai/ha] |
| --- | --- |
| Nc1c(F)c(-c2ccc(C3CC3)nc2)nc(C(=O)O)c1Cl [Compound 36, 4-amino-5-chloro-6′-cyclopropyl-3-fluoro-[2,3′-bipyridine]-6-carboxylic acid] | 53 |
